Structures can show the parent of a compound that is named as a salt.
How the values were obtained:
[1] = tested on: intravesical pressure in anesthetized rats; test: Pelvic nerve electrical stimulation-induced elevation of intravesical pressure in anesthetized rats; format: in vivo, rat; conditions: 3 mg/kg intravenous; maximum effect during 1 hour after administration; pre-treatment AUC = 100%; SD female rats
Experimental: Effect on Pelvic Nerve Electrical Stimulation-Induced Elevation of Intravesical Pressure in Anesthetized Rats
As an effect on the nerve stimulation-dependent bladder contraction in vivo, the effect of the Example compound of the present invention in the pelvic nerve electrical stimulation-induced elevation of the intravesical pressure in rats was measured by the following method. That is, using SD female rats (Japan SLC, Inc.), the lower abdomen was incised in the midline under anesthesia with pentobarbital (50 mg/kg ip). The ureter on both sides was ligated and cut, and then a cannula for measuring the intravesical pressure (PE-50) was inserted into the bladder from the external urethral orifice and fixed by a clip. About 200 μL of physiological saline was injected through the cannula inserted into the bladder, the other side was then connected to a pressure transducer, and the intravesical pressure was measured. Under observation using a stereomicroscope, the pelvic nerve near the bladder was isolated and an electrode (Unique Medical) for nerve stimulation was placed. The abdominal cavity was filled with mineral oil (MP BIOMEDICALS). […] After the elevation of the intravesical pressure by electrical stimulation was stabilized three times or more, the test substance (dose of 3 mg/kg) was administered at a volume of 1 mL/kg from a catheter placed in the vein and the effect of the test substance on the elevation of the intravesical pressure was measured for 1 hour. […]
The responses were put into a personal computer through PowerLab (registered trademark) (AD Instruments), and analyzed with LabChart (registered trademark). The AUC of each elevation of the intravesical pressure was calculated. The average value of three values before the treatment with the test substance was set to 100%, and the elevation rate of the intravesical pressure (% of pre) after the treatment with the test substance was calculated. […]

isolated rat bladder = test: Transmural electrical field stimulation-induced contraction of isolated rat bladder; conditions: AUC of contractile response, value before treatment = 100%, SD female rat bladder strip, read-out: Enhancement rate of isolated bladder contraction (% of pre)
Experimental: Effects on Transmural Electrical Field Stimulation-Induced Contraction of Isolated Rat Bladder
As an effect on the nerve stimulation-dependent bladder contraction in vitro, the effect of the Example compound of the present invention in the transmural electrical field stimulation-induced contraction of isolated rat bladder was measured by the following method. That is, from the bladder isolated from a Spraque-Dawley (SD) female rat (Japan SLC, Inc.), a longitudinal bladder strip having a width of about 2 mm and a length of about 10 mm was prepared. The prepared bladder strip was suspended in an organ bath filled with 10 mL of a Krebs-Henseleit solution. The Krebs-Henseleit solution was bubbled with 95% O2 and 5% CO2, and kept at 37° C. After stabilization at an initial tension of 1 g, contraction was induced twice with 60 mM KCl. The strip was washed with the Krebs-Henseleit solution and stabilized, and then contraction was induced with transmural electrical field stimulation at 20 V (stimulation frequency of 8 Hz, pulse width of 0.3 msec, and stimulation time of 10 seconds) by an electrical stimulation device (Nihon Kohden Corporation). At an interval of 2 minutes, transmural electrical field stimulation was repeated and the voltage was adjusted to make the contractile amplitude about 50% of the contractile response by 20 V. After stabilization of the contraction by the transmural electrical field stimulation, 10 μL of the test substance (final concentrations of 3 μM, 10 μM, and 30 μM), which had been dissolved in 100% dimethylsulfoxide in advance was added. The test substance was cumulatively administered at the next concentration after the contractile response at a lower concentration had been stabilized. The responses were put into a personal computer through PowerLab (registered trademark) (AD Instruments), and analyzed with LabChart (registered trademark) (AD Instruments). The area under the response of each contractile response (area under curve, AUC) was calculated and the value before the treatment with the test substance was set to 100%. Based on this, the enhancement rate of the isolated bladder contraction (% of pre) after the treatment with the test substance was calculated.
The enhancement rates of the isolated bladder contraction due to several 10 μM Example compounds which are the compounds of the formula (I) are shown in Table 2.

Q: For `C[C@@H]1CCCN1Cc1sc(NC(=O)c2cnc(N3CCC(C(=O)O)CC3)cn2)nc1-c1cc(Cl)cs1` [Example 4, 1-(5-{[4-(4-chloro-2-thienyl)-5-{[(2R)-2-methylpyrrolidin-1-yl]methyl}-1,3-thiazol-2-yl]carbamoyl}pyrazin-2-yl)piperidine-4-carboxylic acid dihydrochloride], which “Elevation rate of intravesical pressure (% of pre)” value (shortened to “Elevation rate … (% of pre)”) [1] is on record?
A: 184 % of pre

Q: And the activity at 10 µM (isolated rat bladder)?
A: 180%

Q: With `CC[C@@H]1CCCN1Cc1sc(NC(=O)c2cnc(N3CCC(C(=O)O)CC3)cn2)nc1-c1cc(F)cc(C(F)(F)F)c1` [Example 115] as the compound, how does the “Elevation rate … (% of pre)” value [1] read?
A: 131 % of pre

Q: What about the activity at 10 µM (isolated rat bladder) of the same compound?
A: 121%

Q: How did the “Elevation rate … (% of pre)” value [1] turn out when `CC[C@@H]1CCCN1Cc1sc(NC(=O)c2cnc(N3CCC(C(=O)O)CC3)cn2)nc1-c1ccc(OC)c(C(F)(F)F)c1` [Example 156] was run?
A: 130 % of pre

Q: And the activity at 10 µM (isolated rat bladder)?
A: 135%

Reference: patent publication US9562044B2, “2-acylaminothiazole derivative or salt thereof” (ASTELLAS PHARMA INC., priority 2013, dated 2017)
